Consider 9 compounds from US20210186947A1, “TOMM6-INTERACTING EXTRACTS AND COMPOUNDS FOR USE IN THE TREATMENT AND PROPHYLAXIS OF NERVOUS SYSTEM DISEASES, ATHEROSCLEROSIS, HEPATITIS B INFECTION AND HUMAN PAPILLOMA VIRUS (HPV) INFECTION” (ETH ZURICH, priority 2018, published 2021).

Positions count from the first letter of the chain named.

Data set [1] concerns the target T1, TOMM6 (Homo sapiens, UniProt Q96B49).
T1 sequence (Q96B49 1-74): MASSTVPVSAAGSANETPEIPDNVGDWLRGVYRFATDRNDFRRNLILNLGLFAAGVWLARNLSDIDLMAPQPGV
Kind of data set: Screening for TOMM6-inducing compounds in HEK cells, TOMM6 immunoblot. Type of data set: cell-based. As to conditions: final concentration 20 microM, 60 h. More on the design: endogenous in cells; host or cells: HEK cells. Here is the method: For immunoblot detection of (hippocampal or HEK cell) proteins, e.g. Tomm6/TOMM6 and Atp6v1a/ATP6V1A, (hippocampal) tissue was pulverized under liquid nitrogen, and HEK cell pellets were directly subjected to protein extraction. Proteins were extracted for 30 min at 4° C. with solubilization buffer (1% sodium deoxycholate, 0.1% SDS, 0.1% NP40, 5 mM EDTA, 50 mM Tris, pH 8.0) supplemented with protease/phosphatase inhibitors (Cat. No. P8349, and/or PPC1010, Sigma-Aldrich, St. Louis, Mo., USA). Particulate material was removed by centrifugation at 50 000×g for 20 min at 4° C. Solubilized proteins were concentrated and delipidated by precipitation with ice-cold acetone/methanol (12:2, final concentration 83%) for 90 min at 4° C. The pellet was dissolved in SDS-sample buffer supplemented with 2% SDS, 0.1 M DTT (or 5% mercaptoethanol), and 6 M urea for 90 min at room temperature. Proteins were stored at a concentration of 0.5 mg-1 mg/ml at −70° C. for further use. Immunoblot detection of proteins was performed with affinity-purified antibodies or F(ab)2 fragments of the respective antibodies after separation of proteins by urea-containing SDS-PAGE (7.5%-10%) under reducing conditions and electrophoretic protein transfer to PVDF membranes in a tank transfer cell (Mini Trans-Blot cell, Bio-Rad GmbH, Munchen, Germany). Bound antibodies were visualized with F(ab)2 fragments of enzyme-coupled secondary antibodies (Dianova GmbH, Hamburg, Germany) pre-absorbed to mouse serum proteins, or by enzyme-coupled protein A (EMD Millipore, Merck KGaA, Darmstadt, Germany) as applicable, and followed by enhanced chemiluminescent detection (ECL Plus, and/or ECL Prime, Amersham, GE Healthcare Life Sciences, Glattbrugg, Switzerland).
TOMM6-inducing compounds were searched for and a screening system was established in HEK cells. HEK cells were cultured in the absence and presence of a test compound at a final concentration of 20 microM. Cells were harvested, proteins were extracted and TOMM6 protein levels were determined in immunoblot with TOMM6-specific antibodies. […] The following TOMM6-interacting (inducing) compounds were identified: Compound-3: N-[(3-chlorophenyl)methyl]-2-(3-piperidyl)oxazole-4-carboxamide; Compound-4: N-[(3,4-dichlorophenyl)methyl]-2-(3-piperidyl)oxazole-4-carboxamide; Compound-5: 2-[(1S)-1-amino-2-methyl-butyl]-N-[(3,4-dichlorophenyl)methyl]oxazole-4-carboxamide; Compound-6: 2-[(1S)-1-amino-2-methyl-propyl]-N-[(3,4-dichlorophenyl)methyl]oxazole-4-carboxamide; Compound-7: 6-(aminomethyl)-4-(4-chlorophenyl)-2-methyl-pyridine-3-carboxamide; Compound-8: 4-(2,4-dichlorophenyl)-6-[(1,3-dioxoisoindolin-2-yl)methyl]-2-methyl-pyridine-3-carboxamide; Compound-9: 4-(4-chlorophenyl)-6-[(1,3-dioxoisoindolin-2-yl)methyl]-2-methyl-pyridine-3-carboxamide; and Compound-10: 4-(4-chlorophenyl)-6-(hydroxymethyl)-2-methyl-pyridine-3-carboxamide).
For orientation: In western blotting, separated proteins are transferred to a membrane and probed.

In data set [2] the test system is hippocampal neuronal cell bodies (NeuN). Nature of the data set: Hippocampal neuronal loss in Tg2576 mice subjected to CUMS, binding assay with [125I]-labeled anti-NeuN antibody. The class given is in vivo. The note with it: 15 months-old Tg2576 mice, 3 months of CUMS, treated during CUMS; compounds 10 mg/kg/d.
Data set [3] addresses T2, Tomm6 (Mus musculus, UniProt Q9CQN3).
T2 construct: hippocampi were isolated from 5-10 aged Tg2576 mice, pulverized under liquid nitrogen and solubilized; from tissue; host or cells: hippocampus of Tg2576 mice
T2 sequence (Q9CQN3 1-74): T1 sequence (Q96B49 1-74) with T5G, P7T, N15S, T17A, P18S, I20V, Y32F
Kind of data set: Immunoblot detection of hippocampal Tomm6 protein in treated Tg2576 mice. The class given is in vivo. The note with it: Tg2576 AD mice subjected to the CUMS protocol, treated during CUMS (10 mg/kg/d).

Data set [4] deals with hyperphosphorylated PHF-Tau. Nature of the data set: Hippocampal hyperphosphorylated PHF-Tau in Tg2576 mice subjected to CUMS, binding assay with [125I]-labeled AT8 antibody. Type of data set: in vivo. The note with it: 15 months-old Tg2576 mice, 3 months of CUMS, treated during CUMS; compounds 10 mg/kg/d.
The nature of data set [5]: Tolerability / toxicity in dogs during four weeks of oral treatment. Type of data set: in vivo. As to conditions: up to an oral dose of 12.5 mg/kg/day.
The nature of data set [6]: Sub-chronic oral toxicity in rats. Type of data set: in vivo, Sprague Dawley rats. On the procedure:
Sub-chronic toxicity studies in dogs (German Shepherd dogs) and rats (Sprague Dawley rats) were performed by the Center of Applied Analytical and Veterinary Studies, Cairo, Egypt.
The oral toxicity of alizarin (Compound-1) in rats was determined in a sub-chronic toxicity study. Rats were treated for 3 months with a once daily oral dose of alizarin of 25 mg/kg/day, 50 mg/kg/day and 100 mg/kg/day. […] The good tolerability of alizarin in rats and dogs is supported by previous observations in humans, which document that long-term treatment for several years with alizarin and alizarin-containing plant extracts is not toxic and was previously used to prevent recurrence of calcium-containing urinary stones (Lorenz et al., Methods Find. Exp. Clin. Pharmacol. 7, 637-643, 1985). Taken together, alizarin has good oral bioavailability and a wide therapeutic window.
Pharmacokinetic data of Compound-7 were determined as another representative TOMM6/Tomm6 inducer with a different chemical structure than alizarin (Compound-1). […] The oral bioavailability of Compound-7 in dogs was much higher than in rats because oral doses of Compound-7 required to achieve equivalent peak serum concentrations were approximately 10-fold higher in rats compared to dogs (FIG. 20B). Again, this observation is in agreement with the equivalent surface area dosage rule, according to which rats and mice usually require a 10-12-fold higher dose than dogs and humans. […] This second peak could reflect enterohepatic recirculation of Compound-7.

The nature of data set [7]: Measurement of serum level in rats by HPLC. The class given is in vivo, Sprague Dawley rats. Here is the method: (§1) Serum concentrations of alizarin were determined with serum isolated from the blood of male and female German shepherd dogs (age: 8-9 months) taken at different time points (0.5 h, 1 h, 2 h, 4 h, 6 h, 8 h, 24 h) after oral intake of the indicated doses for 4 weeks. In addition, serum concentrations of alizarin (Compound-1) were determined in male and female Sprague Dawley rats (body weight: 200-250 g) treated for 1 month and/or three months by oral gavage of alizarin at a once daily dose of 100 mg/kg, 50 mg/kg, 25 mg/kg and 12.5 mg/kg. Serum proteins were removed by acetonitrile precipitation, and alizarin was extracted by chloroform before separation on an HPLC-C18 column (Poroshell 120 EC-C18, 3.0×50 mm, Agilent) with an HPLC system (Agilent 1100 Series) and detection at OD245 nm. For quantitative determination of Compound-7 and Compound-10F in rat and dog serum, serum proteins were also removed by acetonitrile precipitation before HPLC analysis as detailed above and detection at OD254 nm.

Data set [8] in a line: Measurement of serum level in dogs by HPLC. The class given is in vivo, German shepherd dogs. As to conditions: for peak serum concentration: t=1 h. Here is the method: as §1
Data set [9] can be described thus: Toxic adverse effects during 3 months of treatment of Tg2576 AD mice. The class given is in vivo. As to conditions: daily dose of 10 mg/kg.
Data set [10] addresses T1, TOMM6. Kind of data set: Tomm6 induction, test not described.
Setting [11] is: rats, repeated once daily oral intake of 20 mg/kg/d.

With `O=C(NCc1cccc(Cl)c1)c1coc(C2CCCNC2)n1` (stereo not shown) [Compound-3, N-[(3-chlorophenyl)methyl]-2-(3-piperidyl)oxazole-4-carboxamide], at TOMM6 [1], the “TOMM6 protein level in HEK cells” value is “inducers of TOMM6”.

Take `O=C(NCc1ccc(Cl)c(Cl)c1)c1coc(C2CCCNC2)n1` (stereo not shown) [Compound-4, N-[(3,4-dichlorophenyl)methyl]-2-(3-piperidyl)oxazole-4-carboxamide]: in data set [2], the hippocampal neuronal loss entry is “retarded overt neuronal loss”. Besides, the “hippocampal Tomm6 protein content” value on Tomm6 [3] is reported as “strong increase in hippocampal Tomm6 protein content”. In addition, at TOMM6 [1], the “TOMM6 protein level in HEK cells” value was “inducers of TOMM6”. Moreover, the “hippocampal content of hyperphosphorylated PHF-Tau” value (shortened to “hippocampal content”) in data set [4] is “decreased hippocampal PHF tau hyperphosphorylation”.

`CCC(C)[C@H](N)c1nc(C(=O)NCc2ccc(Cl)c(Cl)c2)co1` (stereo partly drawn) [Compound-5, 2-[(1S)-1-amino-2-methyl-butyl]-N-[(3,4-dichlorophenyl)methyl]oxazole-4-carboxamide]: on TOMM6 [1], the “TOMM6 protein level in HEK cells” value was “inducers of TOMM6”.

Regarding `CC(C)[C@H](N)c1nc(C(=O)NCc2ccc(Cl)c(Cl)c2)co1` [Compound-6, 2-[(1S)-1-amino-2-methyl-propyl]-N-[(3,4-dichlorophenyl)methyl]oxazole-4-carboxamide], the “TOMM6 protein level in HEK cells” value on TOMM6 [1] was “inducers of TOMM6”.

Turning to `Cc1nc(CN)cc(-c2ccc(Cl)cc2)c1C(N)=O` [Compound-7, 6-(aminomethyl)-4-(4-chlorophenyl)-2-methyl-pyridine-3-carboxamide], the hippocampal neuronal loss entry in data set [2] was “retarded overt neuronal loss”. Further, the “hippocampal Tomm6 protein content” value at Tomm6 [3] is reported as “strong increase in hippocampal Tomm6 protein content”. Further, the toxic side effects result in [5] was “did not show any detectable toxic side effects”; in data set [6] (rats, up to an oral dose of 50 mg/kg/day, four weeks), “did not show any detectable toxic side effects”. The daily food intake result in data set [6] (rats, daily oral dose of 100 mg/kg/d) was “slightly decreased daily food intake”. Moreover, the “difference between therapeutic and toxic doses (therapeutic index)” value in [6] (therapeutic dose 10 mg/kg once daily in rodent models) is “approximately 10 fold”. Further, the “TOMM6 protein level in HEK cells” value at TOMM6 [1] is “inducers of TOMM6”. The “oral bioavailability / serum concentrations after oral intake” value in data set [7] (rats) and in data set [8] was “has oral bioavailability” throughout. In addition, the “oral doses required to achieve equivalent peak serum concentrations, higher in rats compared to dogs” value in [7] (rats vs dogs) is on record as “approximately 10 fold”. Moreover, in [7] (setting [11]), the “time of peak serum concentration” value came out at 1 h. In addition, in data set [7] (setting [11]), the “time of second serum peak” value came to 3 h. Further, the peak serum concentration in data set [8] (repeated once daily oral dose of 2 mg/kg) came to 0.59 µg/mL; in [8] (repeated once daily oral dosing of 5 mg/kg), 1.56 µg/mL; in data set [8] (repeated once daily oral dosing of 12.5 mg/kg), 3.96 µg/mL. In addition, in data set [4], the “hippocampal content” value is “decreased hippocampal PHF tau hyperphosphorylation”.

In the case of `Cc1nc(CN2C(=O)c3ccccc3C2=O)cc(-c2ccc(Cl)cc2Cl)c1C(N)=O` [Compound-8, 4-(2,4-dichlorophenyl)-6-[(1,3-dioxoisoindolin-2-yl)methyl]-2-methyl-pyridine-3-carboxamide], the “TOMM6 protein level in HEK cells” value on TOMM6 [1] is on record as “inducers of TOMM6”.

As to `Cc1nc(CN2C(=O)c3ccccc3C2=O)cc(-c2ccc(Cl)cc2)c1C(N)=O` [Compound-9, 4-(4-chlorophenyl)-6-[(1,3-dioxoisoindolin-2-yl)methyl]-2-methyl-pyridine-3-carboxamide], at TOMM6 [1], the “TOMM6 protein level in HEK cells” value is given as “inducers of TOMM6”.

As to `Cc1nc(CO)cc(-c2ccc(Cl)cc2)c1C(N)=O` [Compound-10, 4-(4-chlorophenyl)-6-(hydroxymethyl)-2-methyl-pyridine-3-carboxamide], the hippocampal neuronal loss result in data set [2] is “retarded the CUMS-induced hippocampal neuronal loss”. Further, the “hippocampal Tomm6 protein content” value at Tomm6 [3] was “significantly higher”. Further, the “TOMM6 protein level in HEK cells” value at TOMM6 [1] is on record as “inducers of TOMM6”. Besides, in data set [4], the “hippocampal content” value was “significantly inhibited the hippocampal accumulation of hyperphosphorylated PHF tau”. In addition, in data set [9], the toxic adverse effects result is “did not show any detectable toxic adverse effects”.

Turning to `C[C@@H]1CCO[C@H]2Cn3cc(C(=O)NCc4ccc(F)cc4F)c(=O)c(O)c3C(=O)N12` [dolutegravir], on TOMM6 [10], the Tomm6 induction result was “not a Tomm6 inducer”.
